Source: article PMC6691816, “Discovery of aminopyridine-containing spiro derivatives as EGFR mutations inhibitors” (Journal of Enzyme Inhibition and Medicinal Chemistry, 2019)

Columns and labels:
Format in all cases: biochemical
EGF-R G719S = EGF-R G719S (Homo sapiens, UniProt P00533, G719S); assay: Radiometric protein kinase IC50 assay (33PanQinase)
Description: (§1) The compounds were serially diluted in semi-log steps with 100% DMSO in a 96 well microtiter plate. The concentration range of this serial dilution was 1 × 10^−3 M to 3 × 10^−8 M. Directly before use the test compounds were further diluted 1:10 with water, resulting in a concentration range from 1 × 10^−4 M to 3 × 1 0^−9 M in 10% DMSO. For the assays, 5 μL from each concentration were transferred into the assay. The final volume of the assay was 50 μL. The compounds were tested at 10 final assay concentrations in the range from 1 × 10^−5 M to 3 × 10^−10 M. The final DMSO concentration in the reaction cocktails was 1% in all cases.
(§2) A radiometric protein kinase assay (33PanQinase® Activity Assay) was used for measuring the kinase activity of the 9 protein kinases. All kinase assays were performed in 96-well FlashPlatesTM from Perkin Elmer (Boston, MA, USA) in a 50 μL reaction volume. The reaction cocktail was pipetted in 4 steps in the following order: 10 μL of non-radioactive ATP solution (in H2O), 25 μL of assay buffer/[γ-33P]-ATP mixture, 5 μL of test sample in 10% DMSO, 10 μL of enzyme/substrate mixture. The assay for all protein kinases contained 70 mM HEPES-NaOH pH 7.5, 3 mM MgCl2, 3 mM MnCl2, 3 μM Na-orthovanadate, 1.2 mM DTT, ATP, [γ-33P]-ATP, protein kinase, and substrate.The reaction cocktails were incubated at 30 °C for 60 min. The reaction was stopped with 50 μL of 2% (v/v) H3PO4, plates were aspirated and washed two times with 200 μL 0.9% (w/v) NaCl. Incorporation of 33Pi (counting of “cpm”) was determined with a microplate scintillation counter (Microbeta, Wallac). All assays were performed with a BeckmanCoulter Biomek 2000/SL robotic system.
(§3) For each kinase, the median value of the cpm of three wells with complete reaction cocktails, but without kinase, was defined as “low control” (n = 3). This value reflects unspecific binding of radioactivity to the plate in the absence of protein kinase but in the presence of the substrate. Additionally, for each kinase the median value of the cpm of three other wells with the complete reaction cocktail, but without any compound, was taken as the “high control”, i.e. full activity in the absence of any inhibitor (n = 3). The difference between high and low control was taken as 100% activity for each kinase. As part of the data evaluation the low control value of each kinase was subtracted from the high control value as well as from their corresponding “compound values”. The residual activity (in %) for each compound well was calculated by using the following formula: Res. Activity (%) = 100 × [(cpm of compound – low control)/(high control – low control)]
(§4) Based on each 10 corresponding residual activities, IC50 values were calculated using Prism 5.04 for Windows. The mathematical model used was “Sigmoidal response (variable slope)” with parameters “top” fixed at 100% and “bottom” at 0%. The fitting method used was a least-squares fit.

EGF-R wt [1] = molecular target: T1, EGF-R wt (Homo sapiens, UniProt P00533); assay: as above; conditions: for biochemical activity on EGFR wt compared with neratinib: not more than that of neratinib
T1 construct: purchased ProQinase GmbH
Description: as §1, §2, §3, §4

EGF-R T790M = EGF-R T790M (Homo sapiens, UniProt P00533, T790M); assay: as above
Description: as §1, §2, §3, §4

EGF-R d752-759 = EGF-R d752-759 (Homo sapiens, UniProt P00533, DEL752-759); assay: as above
Description: as §1, §2, §3, §4

EGF-R L858R = EGF-R L858R (Homo sapiens, UniProt P00533, L858R); assay: as above
Description: as §1, §2, §3, §4

EGF-R L861Q = EGF-R L861Q (Homo sapiens, UniProt P00533, L861Q); assay: as above
Description: as §1, §2, §3, §4

EGF-R T790M/L858R = EGF-R T790M/L858R (Homo sapiens, UniProt P00533, L858R/T790M); assay: as above; conditions: for inhibitory activity on EGFR mutant containing both T790M and L858R, times stronger than neratinib: ratio of IC50 values to neratinib
Description: as §1, §2, §3, §4

EGF-R d747-749/A750P = EGF-R d747-749/A750P (Homo sapiens, UniProt P00533, A750P/DEL747-749); assay: as above
Description: as §1, §2, §3, §4

HER2 [2] = molecular target: T2, HER2 (Homo sapiens, UniProt P04626); assay: as above
T2 construct: purchased ProQinase GmbH
Description: as §1, §2, §3, §4

HER2 [3] = molecular target: T2, HER2; assay: HER2 protein kinase assay (33PanQinase), single concentration; conditions: 0.5 μM (5 × 10^−7 M), singlicate, % of control activity; read-out: Residual activity under 0.5 μM drug concentration (%) HER2
Description: (§5) The inhibitory profile of 16 compounds was determined using two protein kinases. The compounds were tested at a concentration of 5 × 1 0^−7 M, in singlicate. The compounds were solved and diluted to 5 × 10^−5 M stock solutions in 100% DMSO according to the customer-filled CSF. 10 μL of each of the stock solutions were transferred into […] of a 96-well, Column 1 and 2 of the plate were filled with 10 μL100% DMSO. The plate is in the following referred to as “copy plate”. In the process, 90 μL H2O were added to each well of the copy plate. To minimize potential compound precipitation, the H2O was added to each well only a few minutes before the transfer of the compound solutions into the assay plates. The plate was shaken thoroughly, resulting in a “compound dilution plate” with a compound concentration of 5 × 10^−6 M/10% DMSO. This plate was used for the transfer of 5 μL compound solution into the assay plates. The final volume of the assay was 50 μL. All compounds were tested at 5 × 1 0^−7 M in singlicate. The final DMSO concentration in the reaction cocktails was 1% in all cases. The compound dilution plate was disposed.
(§6) A radiometric protein kinase assay (33PanQinase® Activity Assay) was used for measuring the kinase activity of the two protein kinases. All kinase assays were performed in 96-well FlashPlatesTM from PerkinElmer (Boston, MA, USA) in a 50 μL reaction volume. The reaction cocktail was pipetted in 4 steps in the following order: 20 μL of assay buffer, 5 μL of ATP solution (in H2O), 5 μL of test compound (in 10% DMSO), 20 μL enzyme/subtrate mix. The assay for both protein kinases contained 70 mM HEPES-NaOH pH 7.5, 3 mM MgCl2, 3 mM MnCl2, 3 μM Na-orthovanadate, 1.2 mM DTT, ATP. The assay for ERBB2 additionally contained 50 μg/mLPEG20000. The reaction cocktails were incubated at 30 °C for 60 min. The reaction was stopped with 50 μL of 2% (v/v) H3PO4, plates were aspirated and washed two times with 200 μL 0.9% (w/v) NaCl. Incorporation of 33Pi was determined with a microplate scintillation counter (Microbeta, Wallac). All assays were performed with a BeckmanCoulter/SAGIAN™Core System. The median value of the counts in column 1 (n = 8) of each assay plate was defined as “low control”. This value reflects unspecific binding of radioactivity to the plate in the absence of a protein kinase but in the presence of the substrate. The median value of the counts in column 2 of each assay plate (n = 8) was taken as the “high control”. As part of the data evaluation the low control value from a particular plate was subtracted from the high control value as well as from all 80 “compound values” of the corresponding plate. The residual activity (in %) for each well of a particular plate was calculated by using the following formula: Res. Activity (%) = 100 × [(cpm of compound – low control)/(high control − low control)]

EGF-R wt [4] = molecular target: T1, EGF-R wt; assay: EGFR-wt protein kinase assay (33PanQinase), single concentration; conditions: 0.5 μM (5 × 10^−7 M), singlicate, % of control activity; read-out: Residual activity under 0.5 μM drug concentration (%) EGF-R wt
Description: as §5, §6

T2 sequence (P04626 23-1255): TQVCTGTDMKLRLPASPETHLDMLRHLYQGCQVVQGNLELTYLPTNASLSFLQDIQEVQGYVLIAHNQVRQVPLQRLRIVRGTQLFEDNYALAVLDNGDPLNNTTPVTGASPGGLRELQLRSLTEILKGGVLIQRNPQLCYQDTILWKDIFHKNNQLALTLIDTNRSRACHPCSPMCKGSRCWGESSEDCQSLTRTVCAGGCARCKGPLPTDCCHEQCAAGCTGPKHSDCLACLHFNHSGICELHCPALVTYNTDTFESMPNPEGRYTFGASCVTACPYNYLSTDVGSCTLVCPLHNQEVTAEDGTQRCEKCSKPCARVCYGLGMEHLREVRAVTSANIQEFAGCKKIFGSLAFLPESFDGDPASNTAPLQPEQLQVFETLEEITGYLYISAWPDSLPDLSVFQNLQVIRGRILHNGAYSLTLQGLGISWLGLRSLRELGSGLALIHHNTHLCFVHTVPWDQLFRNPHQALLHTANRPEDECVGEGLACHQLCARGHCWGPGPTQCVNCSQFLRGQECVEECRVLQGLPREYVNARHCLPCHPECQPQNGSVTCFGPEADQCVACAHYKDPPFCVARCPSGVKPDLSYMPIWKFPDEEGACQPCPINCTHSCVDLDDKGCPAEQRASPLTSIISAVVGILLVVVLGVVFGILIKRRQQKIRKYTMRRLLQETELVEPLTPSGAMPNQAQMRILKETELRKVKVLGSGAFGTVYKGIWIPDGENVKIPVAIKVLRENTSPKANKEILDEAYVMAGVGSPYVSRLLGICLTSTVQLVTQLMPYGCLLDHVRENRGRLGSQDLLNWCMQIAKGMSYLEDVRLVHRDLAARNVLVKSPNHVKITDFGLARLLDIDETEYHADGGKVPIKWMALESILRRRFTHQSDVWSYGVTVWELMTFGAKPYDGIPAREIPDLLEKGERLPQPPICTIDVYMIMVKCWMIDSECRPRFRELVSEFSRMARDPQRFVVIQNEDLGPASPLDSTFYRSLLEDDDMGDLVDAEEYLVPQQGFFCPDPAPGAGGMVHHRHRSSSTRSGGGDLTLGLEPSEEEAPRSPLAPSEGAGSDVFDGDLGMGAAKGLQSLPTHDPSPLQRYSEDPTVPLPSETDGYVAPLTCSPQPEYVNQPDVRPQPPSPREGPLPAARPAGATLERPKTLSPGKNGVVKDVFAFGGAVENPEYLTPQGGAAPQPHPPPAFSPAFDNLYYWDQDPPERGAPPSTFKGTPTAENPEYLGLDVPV
Sequence of EGF-R T790M/L858R (P00533 25-1210 T790M/L858R): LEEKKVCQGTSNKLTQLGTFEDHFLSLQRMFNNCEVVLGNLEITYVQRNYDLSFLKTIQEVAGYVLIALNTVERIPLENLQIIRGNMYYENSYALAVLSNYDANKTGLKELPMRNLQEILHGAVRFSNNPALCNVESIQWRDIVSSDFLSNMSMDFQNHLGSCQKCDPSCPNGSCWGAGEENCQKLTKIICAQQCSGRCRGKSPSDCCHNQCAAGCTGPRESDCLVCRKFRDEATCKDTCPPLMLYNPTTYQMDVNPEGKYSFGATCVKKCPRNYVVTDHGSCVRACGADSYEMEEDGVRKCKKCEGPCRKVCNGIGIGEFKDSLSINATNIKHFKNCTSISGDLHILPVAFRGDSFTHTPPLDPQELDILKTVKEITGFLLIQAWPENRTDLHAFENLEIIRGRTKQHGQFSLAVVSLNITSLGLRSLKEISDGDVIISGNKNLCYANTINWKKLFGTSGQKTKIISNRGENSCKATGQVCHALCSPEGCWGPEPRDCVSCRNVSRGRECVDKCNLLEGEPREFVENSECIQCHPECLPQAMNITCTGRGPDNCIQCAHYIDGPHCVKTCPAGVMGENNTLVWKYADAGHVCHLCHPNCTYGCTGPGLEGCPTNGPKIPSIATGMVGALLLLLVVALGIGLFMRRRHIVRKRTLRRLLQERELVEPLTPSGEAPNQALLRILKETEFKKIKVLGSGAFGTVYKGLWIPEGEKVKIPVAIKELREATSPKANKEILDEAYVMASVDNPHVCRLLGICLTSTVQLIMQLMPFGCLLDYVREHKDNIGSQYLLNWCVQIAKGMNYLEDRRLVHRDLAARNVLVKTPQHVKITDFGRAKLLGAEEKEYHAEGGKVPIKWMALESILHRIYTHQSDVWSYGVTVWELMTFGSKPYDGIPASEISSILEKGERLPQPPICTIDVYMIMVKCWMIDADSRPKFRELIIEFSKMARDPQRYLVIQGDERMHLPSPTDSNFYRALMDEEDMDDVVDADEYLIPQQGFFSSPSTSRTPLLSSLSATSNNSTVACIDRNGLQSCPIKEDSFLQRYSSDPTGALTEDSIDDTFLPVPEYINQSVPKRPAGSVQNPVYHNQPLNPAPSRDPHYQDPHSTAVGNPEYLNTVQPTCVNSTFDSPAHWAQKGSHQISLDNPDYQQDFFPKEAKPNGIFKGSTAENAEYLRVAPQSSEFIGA
T1 sequence (P00533 25-1210): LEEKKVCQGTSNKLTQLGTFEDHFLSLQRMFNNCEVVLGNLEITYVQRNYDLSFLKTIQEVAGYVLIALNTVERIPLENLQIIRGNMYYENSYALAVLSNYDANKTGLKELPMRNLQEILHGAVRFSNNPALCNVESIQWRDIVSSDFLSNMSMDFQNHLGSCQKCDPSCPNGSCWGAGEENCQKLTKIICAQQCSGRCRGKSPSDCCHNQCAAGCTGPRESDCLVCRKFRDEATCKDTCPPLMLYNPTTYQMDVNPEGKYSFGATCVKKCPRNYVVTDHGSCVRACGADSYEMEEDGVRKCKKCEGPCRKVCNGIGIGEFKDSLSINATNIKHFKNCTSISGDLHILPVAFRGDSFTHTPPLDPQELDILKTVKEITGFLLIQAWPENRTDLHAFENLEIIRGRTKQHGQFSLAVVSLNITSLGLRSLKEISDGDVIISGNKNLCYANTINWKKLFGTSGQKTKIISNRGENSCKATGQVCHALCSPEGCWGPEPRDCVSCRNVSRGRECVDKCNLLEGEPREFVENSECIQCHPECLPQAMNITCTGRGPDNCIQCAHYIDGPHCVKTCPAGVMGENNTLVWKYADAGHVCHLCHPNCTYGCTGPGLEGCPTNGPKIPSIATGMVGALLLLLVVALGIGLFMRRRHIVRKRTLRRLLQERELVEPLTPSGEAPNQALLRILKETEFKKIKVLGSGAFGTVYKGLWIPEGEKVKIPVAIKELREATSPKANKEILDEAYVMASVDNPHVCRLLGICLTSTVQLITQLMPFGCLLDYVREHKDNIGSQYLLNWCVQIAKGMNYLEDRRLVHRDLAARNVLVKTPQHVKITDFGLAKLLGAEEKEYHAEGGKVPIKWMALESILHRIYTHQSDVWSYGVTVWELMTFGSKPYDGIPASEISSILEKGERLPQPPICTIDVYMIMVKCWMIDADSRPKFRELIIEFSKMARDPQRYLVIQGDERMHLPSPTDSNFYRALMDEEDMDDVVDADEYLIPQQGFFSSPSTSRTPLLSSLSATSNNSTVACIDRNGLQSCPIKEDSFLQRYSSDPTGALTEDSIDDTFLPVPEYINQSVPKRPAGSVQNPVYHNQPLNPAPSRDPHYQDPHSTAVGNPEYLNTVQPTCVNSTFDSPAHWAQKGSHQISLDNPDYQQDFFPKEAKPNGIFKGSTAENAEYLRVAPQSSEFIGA
Sequence of EGF-R d747-749/A750P (P00533 with tags, fused parts or gaps DEL747-749/A750P limits assumed): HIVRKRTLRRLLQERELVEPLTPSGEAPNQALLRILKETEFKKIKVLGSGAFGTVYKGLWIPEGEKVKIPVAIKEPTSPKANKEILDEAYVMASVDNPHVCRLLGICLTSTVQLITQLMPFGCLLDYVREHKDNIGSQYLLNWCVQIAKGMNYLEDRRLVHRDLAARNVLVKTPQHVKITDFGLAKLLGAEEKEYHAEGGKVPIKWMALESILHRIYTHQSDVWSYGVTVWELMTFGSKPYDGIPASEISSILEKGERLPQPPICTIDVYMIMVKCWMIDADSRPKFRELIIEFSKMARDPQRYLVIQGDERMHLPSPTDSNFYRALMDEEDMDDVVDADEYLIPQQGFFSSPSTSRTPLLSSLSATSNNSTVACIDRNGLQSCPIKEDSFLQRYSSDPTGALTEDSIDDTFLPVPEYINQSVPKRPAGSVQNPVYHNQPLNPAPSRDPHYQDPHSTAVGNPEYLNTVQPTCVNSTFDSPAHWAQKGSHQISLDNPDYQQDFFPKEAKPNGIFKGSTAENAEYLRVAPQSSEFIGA
Sequence of EGF-R d752-759 (P00533 with tags, fused parts or gaps DEL752-759 limits assumed): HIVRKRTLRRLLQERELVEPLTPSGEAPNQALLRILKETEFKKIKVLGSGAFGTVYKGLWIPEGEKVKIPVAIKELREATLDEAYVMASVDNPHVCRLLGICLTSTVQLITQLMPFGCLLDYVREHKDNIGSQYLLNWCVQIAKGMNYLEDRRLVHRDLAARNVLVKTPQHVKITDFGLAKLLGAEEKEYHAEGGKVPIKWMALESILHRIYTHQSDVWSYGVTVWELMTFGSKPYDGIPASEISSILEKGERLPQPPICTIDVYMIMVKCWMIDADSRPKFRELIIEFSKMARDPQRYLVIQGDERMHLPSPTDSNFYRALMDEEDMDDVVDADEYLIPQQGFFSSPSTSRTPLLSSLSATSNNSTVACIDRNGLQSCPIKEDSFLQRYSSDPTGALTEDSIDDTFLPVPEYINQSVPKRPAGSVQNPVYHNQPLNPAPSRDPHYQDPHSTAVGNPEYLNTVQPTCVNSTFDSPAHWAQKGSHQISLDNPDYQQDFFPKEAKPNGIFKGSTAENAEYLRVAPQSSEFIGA

C=CC(=O)N1CC2(CCN(C)CC2)c2cc(OC)c(Nc3ncc(C#N)c(Nc4ccc(OCc5ccccn5)cc4)n3)cc21 [Compound A1, 2-{[5-methoxy-1′-methyl-1-(prop-2-enoyl)-1,2-dihydrospiro[indole-3,4′ -piperidine]-6-yl]amino}-4-{[4-(pyridin-2-ylmethoxy)phenyl]amino}pyrimidine-5-carbonitrile]
IC50 (EGF-R G719S): 200 nM
IC50 (EGF-R wt [1]): 61 nM
biochemical activity on EGFR wt compared with neratinib (EGF-R wt [1]): within five times
IC50 (EGF-R T790M): 89 nM
IC50 (EGF-R d752-759): 210 nM
IC50 (EGF-R L858R): 86 nM
IC50 (EGF-R L861Q): 76 nM
IC50 (EGF-R T790M/L858R): 90 nM
inhibitory activity on EGFR mutant containing both T790M and L858R, times stronger than neratinib (EGF-R T790M/L858R): 31 times
IC50 (EGF-R d747-749/A750P): 53 nM
IC50 (HER2 [2]): 260 nM
remaining activity at 0.5 µM (HER2 [3]): 9%
remaining activity at 0.5 µM (EGF-R wt [4]): 7%

C=CC(=O)N1CC2(CCN(C)CC2)c2cc(OC)c(Nc3ncc(C#N)c(Nc4ccc(OCc5ccccn5)c(Cl)c4)n3)cc21 [Compound A2, 4-{[3-chloro-4-(pyridin-2-ylmethoxy)phenyl]amino}-2-{[5-methoxy-1′-methyl-1-(prop-2-enoyl)-1,2-dihydrospiro[indole-3,4′-piperidine]-6-yl]amino}pyrimidine-5-carbonitrile]
IC50 (EGF-R G719S): 240 nM
IC50 (EGF-R wt [1]): 59 nM
biochemical activity on EGFR wt compared with neratinib (EGF-R wt [1]): within five times
IC50 (EGF-R T790M): 130 nM
IC50 (EGF-R d752-759): 200 nM
IC50 (EGF-R L858R): 81 nM
IC50 (EGF-R L861Q): 81 nM
IC50 (EGF-R T790M/L858R): 80 nM
inhibitory activity on EGFR mutant containing both T790M and L858R, times stronger than neratinib (EGF-R T790M/L858R): 31 times
IC50 (EGF-R d747-749/A750P): 54 nM
IC50 (HER2 [2]): 310 nM
remaining activity at 0.5 µM (HER2 [3]): 5%
remaining activity at 0.5 µM (EGF-R wt [4]): 6%
